PMC11682962, “The histamine analogue clobenpropit modulates IRF7 phosphorylation and interferon production by targeting CXCR4 in systemic lupus erythematosus models” (Frontiers in Immunology, 2024)

Target: T1, CXCR4 (Homo sapiens, UniProt P61073)
T1 construct: Nanoluc-CXCR4
Experiment: NanoBRET competition binding against CXCL12-AF647 in transfected HEK293T cells; anti-IFN effect lost with CXCR4 siRNA
Type: cell-based

T1 sequence (P61073 whole entry): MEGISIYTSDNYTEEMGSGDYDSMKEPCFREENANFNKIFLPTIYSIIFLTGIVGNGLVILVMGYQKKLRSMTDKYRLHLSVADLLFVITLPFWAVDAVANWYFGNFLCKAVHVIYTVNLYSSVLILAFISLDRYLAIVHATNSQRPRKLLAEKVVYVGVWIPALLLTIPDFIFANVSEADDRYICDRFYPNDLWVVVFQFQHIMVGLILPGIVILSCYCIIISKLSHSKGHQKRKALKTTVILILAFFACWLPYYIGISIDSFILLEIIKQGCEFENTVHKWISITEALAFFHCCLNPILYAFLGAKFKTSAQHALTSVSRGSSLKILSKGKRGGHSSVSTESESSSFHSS

**Q.** Which Ki does the source give for `NC(=NCc1ccc(Cl)cc1)SCCCc1cnc[nH]1` [CB, clobenpropit] here?
**A.** The Ki was 18.6 µM.
